“Also recorded” adds a separate entry of the source. Read-outs that look alike come from different tables or passages of the source.
Legend:
[1] = molecular target: T1, hLigI (Homo sapiens, UniProt P18858); experiment: High-throughput fluorescence-based DNA joining (ligation) assay; format: biochemical; conditions: for inhibition of hLigI (DNA ligase I), in words: in vitro screen, 100 μmol/L, the 15 hLigI inhibitors inhibited by >50%
T1 construct: made in house
How it was run: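 Nicked DNA substrate (10 pmol) was incubated with 0.25 pmol hLigI, with or without 100 μmol/L test compound, in duplicate. Afterwards the DNA was denatured and renatured with a 20-fold excess of unmodified oligonucleotide. Ligation forms an AF488/BHQ1 hairpin, read as reduced fluorescence at 518 nm.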

[2] = molecular target: human DNA ligase IV (Homo sapiens, UniProt P49917); experiment: as above; format: biochemical; conditions: for % activity Inhibition hLigIV 100 uM: Ø not defined (0 in Table 5A)
How it was run: (§1)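 Ligation joins an AF488-labelled and a BHQ1-labelled oligonucleotide. After denaturation and renaturation with a 20-fold excess of unlabelled competitor strand, the product forms a quenched hairpin, so joining is read as loss of 518 nm fluorescence. Ligase III used a nicked duplex; ligase IV used two duplexes with short complementary single-strand ends.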

[3] = molecular target: T2, human DNA ligase III (Homo sapiens, UniProt P49916); experiment: as above; format: biochemical; conditions: for inhibition of human DNA ligase III, in words: in vitro screen
T2 sequence (P49916 1-862 isoform P49916-4): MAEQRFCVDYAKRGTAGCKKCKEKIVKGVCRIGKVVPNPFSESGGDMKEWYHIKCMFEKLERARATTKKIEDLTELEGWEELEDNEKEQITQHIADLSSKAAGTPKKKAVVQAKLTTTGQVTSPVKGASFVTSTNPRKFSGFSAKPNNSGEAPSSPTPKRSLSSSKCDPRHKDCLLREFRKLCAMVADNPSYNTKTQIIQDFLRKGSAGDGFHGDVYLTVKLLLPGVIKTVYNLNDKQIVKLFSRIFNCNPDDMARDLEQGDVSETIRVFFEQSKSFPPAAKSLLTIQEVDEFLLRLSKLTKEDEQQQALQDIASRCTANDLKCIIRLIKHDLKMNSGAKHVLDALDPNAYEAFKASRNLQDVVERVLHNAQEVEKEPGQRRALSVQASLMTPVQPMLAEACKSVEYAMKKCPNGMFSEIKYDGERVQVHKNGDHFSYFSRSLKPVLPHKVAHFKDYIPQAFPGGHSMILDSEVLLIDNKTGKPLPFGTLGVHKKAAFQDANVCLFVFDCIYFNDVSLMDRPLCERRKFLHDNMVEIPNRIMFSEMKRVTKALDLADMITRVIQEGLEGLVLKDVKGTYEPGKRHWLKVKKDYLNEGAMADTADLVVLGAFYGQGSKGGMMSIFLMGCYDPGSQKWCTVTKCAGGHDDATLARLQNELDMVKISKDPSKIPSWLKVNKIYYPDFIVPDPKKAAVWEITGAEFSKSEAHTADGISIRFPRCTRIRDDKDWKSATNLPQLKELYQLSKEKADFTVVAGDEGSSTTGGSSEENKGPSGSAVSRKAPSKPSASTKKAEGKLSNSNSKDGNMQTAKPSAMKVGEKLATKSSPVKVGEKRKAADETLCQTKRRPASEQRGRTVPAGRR
How it was run: as §1

[4] = molecular target: T3, T4 DNA ligase (Enterobacteria phage T4, UniProt P00970); experiment: High-throughput fluorescence-based DNA joining assay, non-specific inhibitor control; format: biochemical, bacteriophage T4
T3 construct: purchased NEB
T3 sequence (P00970 1-487): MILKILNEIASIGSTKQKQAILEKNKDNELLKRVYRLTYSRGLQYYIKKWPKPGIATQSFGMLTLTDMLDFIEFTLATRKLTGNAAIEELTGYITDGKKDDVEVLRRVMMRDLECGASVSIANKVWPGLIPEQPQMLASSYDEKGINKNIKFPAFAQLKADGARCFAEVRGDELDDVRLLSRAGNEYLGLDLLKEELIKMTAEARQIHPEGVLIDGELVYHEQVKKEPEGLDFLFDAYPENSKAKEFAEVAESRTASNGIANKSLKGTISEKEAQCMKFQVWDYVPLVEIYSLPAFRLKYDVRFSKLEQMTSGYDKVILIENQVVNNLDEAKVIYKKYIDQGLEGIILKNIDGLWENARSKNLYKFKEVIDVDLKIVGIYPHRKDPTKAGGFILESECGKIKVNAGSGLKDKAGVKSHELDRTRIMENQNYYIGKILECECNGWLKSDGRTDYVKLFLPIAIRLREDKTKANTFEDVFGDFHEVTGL
How it was run: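 This counter-screen used a FRET-based DNA joining assay. Duplicate reactions held 10 pmol nicked DNA substrate and 10 units T4 DNA ligase, with or without 100 μmol/L compound. T4 ligase lacks the DNA-binding domain targeted in silico, so compounds inhibiting it were flagged as non-specific, likely DNA-binding.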

[5] = 100 uM, read-out: % activity Inhibition hLigI 100 uM
[6] = 100 μM, read-out: In vitro % inhib hLigI 100
[7] = read-out: In vitro % inhib hLigIV 100
[8] = 100 μM, read-out: In vitro % inhib hLigIII 100
[9] = 100 uM, Ø not defined (0 in Table 5A), read-out: % activity Inhibition hLigIII 100 uM
[10] = 100 μM, read-out: In vitro % inhib T4 100

T1 sequence (P18858 whole entry): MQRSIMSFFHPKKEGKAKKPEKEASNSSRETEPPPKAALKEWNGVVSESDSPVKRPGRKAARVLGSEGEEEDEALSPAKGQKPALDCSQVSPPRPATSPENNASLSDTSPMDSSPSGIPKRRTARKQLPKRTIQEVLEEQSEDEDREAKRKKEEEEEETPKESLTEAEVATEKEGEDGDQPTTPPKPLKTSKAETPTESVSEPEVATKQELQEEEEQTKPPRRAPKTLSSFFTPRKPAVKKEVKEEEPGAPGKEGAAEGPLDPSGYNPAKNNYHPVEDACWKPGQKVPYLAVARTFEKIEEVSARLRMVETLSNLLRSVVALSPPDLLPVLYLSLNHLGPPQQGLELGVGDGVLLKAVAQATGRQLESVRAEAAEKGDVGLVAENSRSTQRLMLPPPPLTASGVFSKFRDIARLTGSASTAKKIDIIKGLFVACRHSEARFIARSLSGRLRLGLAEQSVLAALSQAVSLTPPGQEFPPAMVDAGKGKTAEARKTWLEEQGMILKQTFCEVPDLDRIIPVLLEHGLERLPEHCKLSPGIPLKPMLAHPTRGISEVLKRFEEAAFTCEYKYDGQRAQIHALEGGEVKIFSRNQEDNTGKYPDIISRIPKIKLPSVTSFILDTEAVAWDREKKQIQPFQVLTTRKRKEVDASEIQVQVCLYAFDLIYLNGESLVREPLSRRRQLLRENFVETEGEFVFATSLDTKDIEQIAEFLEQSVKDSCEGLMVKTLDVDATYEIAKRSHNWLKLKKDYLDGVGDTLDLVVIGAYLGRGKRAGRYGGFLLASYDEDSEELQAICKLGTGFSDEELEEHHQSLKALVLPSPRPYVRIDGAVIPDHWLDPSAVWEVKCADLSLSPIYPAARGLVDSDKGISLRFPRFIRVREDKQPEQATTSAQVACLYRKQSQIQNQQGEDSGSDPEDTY
Chain of human DNA ligase IV (P49917 whole entry): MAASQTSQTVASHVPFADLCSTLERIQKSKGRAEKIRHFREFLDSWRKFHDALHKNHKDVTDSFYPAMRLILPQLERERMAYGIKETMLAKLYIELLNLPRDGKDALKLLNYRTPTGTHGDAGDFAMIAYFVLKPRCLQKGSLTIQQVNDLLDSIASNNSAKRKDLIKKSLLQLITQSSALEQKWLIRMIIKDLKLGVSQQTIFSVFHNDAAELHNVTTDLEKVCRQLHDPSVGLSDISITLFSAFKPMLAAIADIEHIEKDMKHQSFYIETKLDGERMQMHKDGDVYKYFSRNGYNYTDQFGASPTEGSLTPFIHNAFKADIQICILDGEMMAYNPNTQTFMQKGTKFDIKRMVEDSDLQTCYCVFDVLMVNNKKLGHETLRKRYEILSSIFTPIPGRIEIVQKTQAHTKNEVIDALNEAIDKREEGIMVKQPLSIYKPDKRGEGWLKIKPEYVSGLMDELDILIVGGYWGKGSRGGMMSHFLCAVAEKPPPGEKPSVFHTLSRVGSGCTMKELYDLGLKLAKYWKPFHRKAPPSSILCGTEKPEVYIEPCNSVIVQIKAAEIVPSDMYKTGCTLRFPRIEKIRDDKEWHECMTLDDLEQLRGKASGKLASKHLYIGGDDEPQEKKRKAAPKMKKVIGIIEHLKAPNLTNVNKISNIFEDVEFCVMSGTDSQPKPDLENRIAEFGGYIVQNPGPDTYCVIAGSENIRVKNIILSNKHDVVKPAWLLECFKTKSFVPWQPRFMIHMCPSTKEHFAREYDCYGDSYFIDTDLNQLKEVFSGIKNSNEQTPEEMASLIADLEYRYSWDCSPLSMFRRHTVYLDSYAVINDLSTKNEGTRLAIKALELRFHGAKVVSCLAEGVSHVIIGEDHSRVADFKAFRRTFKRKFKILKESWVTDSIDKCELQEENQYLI
Chain of human DNA ligase IV (Q13426 whole entry partner): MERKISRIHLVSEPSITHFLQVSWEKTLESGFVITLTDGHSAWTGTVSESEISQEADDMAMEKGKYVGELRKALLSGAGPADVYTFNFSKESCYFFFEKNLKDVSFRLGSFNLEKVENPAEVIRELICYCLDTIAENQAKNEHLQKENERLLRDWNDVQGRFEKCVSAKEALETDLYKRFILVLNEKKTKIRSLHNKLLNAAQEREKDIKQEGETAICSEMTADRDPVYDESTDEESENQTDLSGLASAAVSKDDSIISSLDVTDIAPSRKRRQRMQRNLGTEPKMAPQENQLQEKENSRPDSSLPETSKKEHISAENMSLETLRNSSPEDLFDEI

## O=C(c1ccc(O)cc1)c1ccccc1O [Compound 200]
[1]; [5]
  inhibition at 100 µM: 50.7 ± 10.9%
[1]; 100 μM, read-out: % of inhibition @ 100 μM (Helen's data) hLigI
  inhibition at 100 µM: 51%
[1]; [6]
  inhibition at 100 µM: 51 ± 11%
[1]
  inhibition of hLigI (DNA ligase I), in words: inhibited hLigI; also recorded: specifically inhibit DNA ligases I and III
[2]; read-out: % of inhibition @ 100 μM (Helen's data) hLigIV
  inhibition at 100 µM: < 20%
[2]; [7]
  inhibition at 100 µM: 0%
[2]
  % activity Inhibition hLigIV 100 uM: Ø
[3]; [8]
  inhibition at 100 µM: 60 ± 5%
[3]; [9]
  inhibition at 100 µM: 59.5 ± 5.2%
[3]
  inhibition of human DNA ligase III, in words: specifically inhibit DNA ligases I and III
[3]; read-out: % of inhibition @ 100 μM (Helen's data) hLigIII
  inhibition at 100 µM: 60%
[4]; [10]
  inhibition at 100 µM: 0%
[4]; read-out: % activity Inhibition LigT4 100 uM
  inhibition at 100 µM: 0%

## CCCCC(=O)c1ccc(O)cc1O [Compound 213]
[1]; [5]
  inhibition at 100 µM: 36.4 ± 8.6%
[1]; [6]
  inhibition at 100 µM: 36 ± 9%
[1]
  inhibition of hLigI (DNA ligase I), in words: specifically inhibit DNA ligases I and III
[2]; [7]
  inhibition at 100 µM: 0%
[2]
  % activity Inhibition hLigIV 100 uM: Ø
[3]; [8]
  inhibition at 100 µM: 25 ± 1%
[3]; [9]
  inhibition at 100 µM: 25.2 ± 0.46%
[3]
  inhibition of human DNA ligase III, in words: specifically inhibit DNA ligases I and III
[4]; [10]
  inhibition at 100 µM: 0%

From US9757375B2, “Compounds that inhibit human DNA ligases and methods of treating cancer” (University of Maryland, Baltimore, priority 2007, dated 2017)
